From patent publication US5593960A, “Cyclic heptapeptide anti-inflammatory agent” (The Regents of the University of California, priority 1995, dated 1997)

Tested on: phorbol-induced inflammation (edema) of mouse ears
Assay: Inhibition of Mouse Ear Edema - Standard Protocol (topical, PMA-induced)
Format: in vivo
Conditions: for Inhibition of mouse ear edema: relative to PMA control
Method: Cyclomarin-A was tested by measuring inhibition of phorbol-induced inflammation (edema) of mouse ears. […] The compound is topically applied in acetone to the inside pinnae of the ears of mice in a solution containing the edema-causing irritant, i.e. phorbol 12-myristate 13-acetate (PMA). PMA alone (2 microgram per ear) or in combination with varying amounts of cyclomarin-A was applied to the left ears of (5 mice per treatment group). Acetone was applied to all right ears. After a 3-hour and 20-minute incubation at 23° C., the mice were sacrificed, the ears removed and bores taken and weighed. Edema was measured by subtracting the weight of the right ear (acetone control) from the weight of the left ear (treated). The results were recorded as a percent decrease (inhibition) or percent increase (potentiation) in edema relative to the PMA control group edema.

Substance: cyclomarin-A
- Inhibition of mouse ear edema (5 ug/ear with PMA 2 microgram per ear): 3.0%
- Inhibition of mouse ear edema (10 ug/ear with PMA 2 microgram per ear): 39.0%
- Inhibition of mouse ear edema (25 ug/ear with PMA 2 microgram per ear): 57.0%
- Inhibition of mouse ear edema (50 ug/ear with PMA 2 microgram per ear): 88.0%
- topical anti-inflammatory activity (general statement): exhibit topical anti-inflammatory activity
